Measured values taken from ChEMBL document CHEMBL1909046, “DrugMatrix in vitro pharmacology data”.

Assays:
[1] = target: T1, Alpha-2A adrenergic receptor (Homo sapiens, UniProt P08913); type: cell membranes, Sf9, Membrane; note: in other assays of this panel Not Active means under 50% inhibition at 10 µM
T1 sequence (P08913 whole entry): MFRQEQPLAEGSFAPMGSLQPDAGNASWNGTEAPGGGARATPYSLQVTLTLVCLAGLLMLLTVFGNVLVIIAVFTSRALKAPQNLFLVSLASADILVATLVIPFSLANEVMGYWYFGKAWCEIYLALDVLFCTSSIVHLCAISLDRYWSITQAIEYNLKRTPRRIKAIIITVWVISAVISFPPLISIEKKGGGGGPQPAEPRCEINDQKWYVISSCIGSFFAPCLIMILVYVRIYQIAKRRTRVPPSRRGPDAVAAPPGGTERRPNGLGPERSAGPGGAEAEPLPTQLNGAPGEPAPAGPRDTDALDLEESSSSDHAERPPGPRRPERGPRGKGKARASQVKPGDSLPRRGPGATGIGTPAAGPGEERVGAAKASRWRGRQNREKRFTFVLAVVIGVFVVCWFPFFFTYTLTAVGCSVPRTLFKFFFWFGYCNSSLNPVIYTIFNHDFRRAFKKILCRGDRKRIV

[2] = target: D(1A) dopamine receptor (Homo sapiens, UniProt P21728); experiment: DRUGMATRIX: Dopamine D1 radioligand binding (ligand: [3H] SCH-23390); type: cell membranes, CHO, Membrane; conditions: cho; Not Active = under 50% inhibition at 10 µM
[3] = DRUGMATRIX: GABAA, Chloride Channel, TBOB radioligand binding (ligand: [3H] TBOB); type: cell membranes, Rattus norvegicus, Wistar, Cerebral cortex, Membrane; conditions: Not Active = under 50% inhibition at 10 µM
[4] = target: T2, Caspase-1 (Homo sapiens, UniProt P29466); set-up: species or system Escherichia coli;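 note: Caspase-1 enzyme inhibition assay with a peptide substrate; in other assays of this panel Not Active means under 50% inhibition at 10 µM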
T2 sequence (P29466 whole entry): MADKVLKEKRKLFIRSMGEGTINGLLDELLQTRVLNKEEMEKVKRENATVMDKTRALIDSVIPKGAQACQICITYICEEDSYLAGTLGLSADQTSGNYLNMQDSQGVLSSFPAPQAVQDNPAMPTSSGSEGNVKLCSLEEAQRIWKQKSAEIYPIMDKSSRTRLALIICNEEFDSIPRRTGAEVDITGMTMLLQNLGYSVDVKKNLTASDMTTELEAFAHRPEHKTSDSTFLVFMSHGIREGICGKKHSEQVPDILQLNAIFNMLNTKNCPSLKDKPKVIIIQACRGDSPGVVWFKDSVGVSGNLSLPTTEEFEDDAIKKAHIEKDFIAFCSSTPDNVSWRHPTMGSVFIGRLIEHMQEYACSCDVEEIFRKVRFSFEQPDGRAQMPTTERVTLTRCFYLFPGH

[5] = target: Receptor tyrosine-protein kinase erbB-2 (Homo sapiens, UniProt P04626); experiment: biochemical; type: cell-based, Insect cells;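 note: inhibition of HER2 kinase enzyme activity, measured with Poly(Glu:Tyr) as the phosphorylation substrate; in other assays of this panel Not Active means under 50% inhibition at 10 µM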

Chain of D(1A) dopamine receptor (P21728 whole entry): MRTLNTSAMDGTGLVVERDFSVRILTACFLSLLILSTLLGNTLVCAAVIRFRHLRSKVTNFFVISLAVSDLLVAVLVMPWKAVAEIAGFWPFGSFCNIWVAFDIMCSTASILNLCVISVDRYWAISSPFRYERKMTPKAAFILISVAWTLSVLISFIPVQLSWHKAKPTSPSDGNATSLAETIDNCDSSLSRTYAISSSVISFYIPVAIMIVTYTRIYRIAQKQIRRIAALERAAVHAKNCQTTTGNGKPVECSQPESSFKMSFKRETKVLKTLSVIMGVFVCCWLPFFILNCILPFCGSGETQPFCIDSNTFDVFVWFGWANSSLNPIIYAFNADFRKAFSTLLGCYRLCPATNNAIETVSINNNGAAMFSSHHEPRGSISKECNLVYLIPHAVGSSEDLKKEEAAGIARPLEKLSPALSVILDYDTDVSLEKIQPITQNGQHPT

| Molecule | IC50 ([1]; sf9) | IC50 [2] | IC50 [3] | Ki [3] | IC50 [4] | IC50 ([5]; insect cells) | IC50 ([1]; read-out: IC50) [µM] | Ki ([1]; read-out: Ki) [µM] | IC50 ([5]; read-out: IC50) [µM] | Ki ([1]; sf9) | Ki [2] | Ki [4] | Ki ([5]; insect cells) |
| --- | --- | --- | --- | --- | --- | --- | --- | --- | --- | --- | --- | --- | --- |
| CCN(CC)CCOCCC1=CCC2CC1C2(C)C (stereo unspecified) [MYRTECAINE] | Not Active | Not Active | Not Active | Not Active | Not Active | Not Active |  |  |  |  |  |  |  |
| COC(=O)Nc1nc2ccc([S+]([O-])c3ccccc3)cc2[nH]1 (stereo unspecified) [OXFENDAZOLE] | Not Active | Not Active | Not Active | Not Active | Not Active | Not Active |  |  |  |  |  |  |  |
| CC(=O)[C@@]1(O)CC[C@H]2[C@@H]3CCC4=CC(=O)CC[C@]4(C)[C@H]3CC[C@@]21C [HYDROXYPROGESTERONE] | Not Active | Not Active | Not Active | Not Active | Not Active | Not Active |  |  |  |  |  |  |  |
| Oc1c(Cl)cc(Cl)c(Cl)c1Cc1c(O)c(Cl)cc(Cl)c1Cl [HEXACHLOROPHENE] |  | Not Active | Not Active | Not Active | Not Active |  | 5.5 | 2.06 | 3.32 |  |  |  |  |
| COC1=C(OC)C(=O)C(CCCCCCCCCCO)=C(C)C1=O [IDEBENONE] | Not Active | Not Active | Not Active | Not Active | Not Active | Not Active |  |  |  |  |  |  |  |
| C[C@]12C=CC(=O)C=C1CC[C@@H]1[C@@H]2[C@@H](O)C[C@@]2(C)[C@H]1CC[C@]2(O)C(=O)CO [PREDNISOLONE] | Not Active | Not Active | Not Active | Not Active | Not Active | Not Active |  |  |  |  |  |  |  |
| O=C1O[C@H]([C@@H](O)CO)C(O)=C1O [ASCORBIC ACID] | Not Active | Not Active | Not Active | Not Active | Not Active | Not Active |  |  |  |  |  |  |  |
| COc1ccc(C2C(=O)c3ccccc3C2=O)cc1 [ANISINDIONE] | Not Active | Not Active | Not Active | Not Active | Not Active | Not Active |  |  |  |  |  |  |  |
| COc1ccc(C(=O)N2CCCC2=O)cc1 | Not Active | Not Active | Not Active | Not Active | Not Active | Not Active |  |  |  |  |  |  |  |
| C[C@@H]1C[C@H]2[C@@H]3CCC4=CC(=O)C=C[C@]4(C)[C@@]3(F)[C@@H](O)C[C@]2(C)[C@@]1(O)C(=O)CO [DEXAMETHASONE] | Not Active | Not Active | Not Active | Not Active | Not Active | Not Active |  |  |  |  |  |  |  |
| O=C(c1ccccc1C(F)(F)F)N1CCC(Cc2ccccc2)CC1 | Not Active | Not Active | Not Active | Not Active | Not Active | Not Active |  |  |  |  |  |  |  |
| CCC1(C)CC(=O)NC1=O (stereo unspecified) [ETHOSUXIMIDE] | Not Active | Not Active | Not Active | Not Active | Not Active | Not Active |  |  |  |  |  |  |  |
| GRAMICIDIN | Not Active | Not Active | Not Active | Not Active | Not Active | Not Active |  |  |  | Not Active | Not Active | Not Active | Not Active |
| OC(CCCN1CCCCC1)(c1ccccc1)c1ccccc1 [DIPHENIDOL] | Not Active | Not Active | Not Active | Not Active | Not Active | Not Active |  |  |  |  |  |  |  |
| CCC(=O)O[C@]1(C(=O)CCl)[C@@H](C)C[C@H]2[C@@H]3CCC4=CC(=O)C=C[C@]4(C)[C@@]3(F)[C@@H](O)C[C@@]21C [CLOBETASOL PROPIONATE] | Not Active | Not Active | Not Active | Not Active | Not Active | Not Active |  |  |  |  |  |  |  |
| Cc1c(OCC(F)(F)F)ccnc1C[S+]([O-])c1nc2ccccc2[nH]1 (stereo unspecified) [LANSOPRAZOLE] | Not Active | Not Active | Not Active | Not Active | Not Active | Not Active |  |  |  |  |  |  |  |
